The values below come from the SangsterLogP compilation.

The nature of the first data set: method code SF-HPLC, from DOI: 10.1021/jm00047a008, PMID: 7932579. The conditions noted are these: pH 5.0.
`Cc1ccc2c(c1)c(C)c1c3ccccc3nc-1n2C` yielded a logD of 2.04.

Staying with this data set, now noted: pH 9.0.
For the compound `Cc1ccc2nc3[nH]c4ccc(C)cc4c3c(C)c2c1`, the logD was 2.58.

With `Cn1c2nc3ccccc3c-2cc2ccccc21`, the logD came out at 3.04.

Turning to `Cc1cccc2c(C)c3c(nc12)[nH]c1ccccc13`, the logD stood at 2.92.

For `Cc1c2c3ccccc3nc-2n(C)c2ccccc12`, the logD turned out to be 2.58.

The compound `Cc1c2c3ccccc3nc-2n(C)c2c(C)cccc12` registered a logD of 2.46.

In turn, `Cc1ccc2nc3n(C)c4ccc(C)cc4c(C)c-3c2c1` showed a logD of 2.42.

As to `c1ccc2nc3[nH]c4ccccc4c3cc2c1`, the logD is 2.44. The logD values of the last two compounds are within 0.2 log units of each other.

`Cc1c2ccccc2nc2[nH]c3ccccc3c12` gave a logD of 2.69.
